The values that follow come from patent US6121277A, “Camptothecin-skeleton compounds isolated from Mappia foetida and the use thereof as syntones for novel medicaments as well as therapeutical agents” (Indena S.p.A., priority 1996, dated 2000).

Where two headings read alike, the source gives them in different places.

For one experiment, the system named is HCT116. Description: Cytotoxic activity against colon carcinoma line HCT116. The class given is cell-based. The note with it: Homo sapiens. The text has this:
(§1) Compounds 1 have cytotoxic activity against tumor cell lines. For example, Table 1 reports the cytotoxic activity against a colon carcinoma line (HCT116) and against the same line resistant to the most common chemotherapeutics (HCT116/VM46).

The next experiment relates to HCT116/VM46. In words: Cytotoxic activity against the same line resistant to the most common chemotherapeutics (HCT116/VM46). The format is cell-based. The note with it: Homo sapiens.
Source text: as §1

On to `CCC(O)(C(=O)O)c1cc2n(c(=O)c1COC(C)=O)Cc1cc3ccccc3nc1-2` (stereo not shown) [17-Acetyl-camptothecinic acid, 17-acetyl-camptothecinic acid], for which the IC50 was 8.2 nM in the experiment on HCT116 (HCT-116, colon carcinoma line HCT116, read-out: IC50 Line HCT116) and 25.3 nM with HCT116/VM46 (HCT-116/VM46, HCT116/VM46, resistant to the most common chemotherapeutics, read-out: IC50 Line HCT116/VM46).
Regarding `CC[C@@]1(O)C(=O)OCc2c1cc1n(c2=O)Cc2cc3ccccc3nc2-1` [Camptothecin, camptothecin], the IC50 came to 10.5 nM with HCT116 (HCT-116, read-out: IC50 Line HCT116) and 96.7 nM in the experiment on HCT116/VM46 (HCT-116/VM46, read-out: IC50 Line HCT116/VM46).
